Results from patent US6632829B2, “Sulfonamides and derivatives thereof that modulate the activity of endothelin” (Texas Biotechnology Corp., priority 1996, dated 2003).

Assays:
hypertensive rat model = assay: Deoxycorticosterone acetate (DOCA)-salt hypertensive rat model; assay type: in vivo
Protocol: Selected compounds disclosed herein have been tested for activity in the deoxycorticosterone acetate (DOCA)-salt hypertensive rat model. To perform these tests, silastic MDX4-4210 elastomer implants containing 47 mg (DOCA) were prepared according to the method of Ornmsbee et al. ((1973) the J. Pharm. Sci. 62:255-257). Briefly, DOCA is incorporated into silicon rubber implants for sustained release. To prepare the implants the DOCA is incorporated into unpolymerized silicone rubber, catalyst is added and the mixture is cast in a hemicylindrical shape.
Sprague Dawley rats (7-8 weeks old) were unilaterally nephrectomized under ketamine anesthesia and a DOCA-implant was placed on the left lateral dorsal abdomen of the animal. The rats were allowed to recover for three weeks. During recovery they were permitted free access to normal rat chow and 0.9% NaCl drinking solution in place of drinking water. The rats develop hypertension within 3 weeks. […]
On the day of experimentation, catheters were inserted under brevital anesthesia into the right femoral artery for measurement of blood pressure, and into the right femoral vein for administration of a selected compound. The animals were placed in a restrainer and allowed to recover for a minimum of 60 min or until a steady mean arterial blood pressure was recorded. […] Blood pressure was recorded continuously for a further 10 hrs.

human ETA receptors = target: T1, human ETA receptors (Homo sapiens, UniProt P25101); assay: Endothelin binding inhibition, Binding Test #1: competition with 125I-ET-1 for ETA receptors on TE 671 cell membranes; conditions: incubation at 24° C. (values marked †)
T1 construct: endogenous in cells; host or cells: TE 671 cells (ATCC HTB 139), membrane preparation
T1 sequence (P25101 21-427): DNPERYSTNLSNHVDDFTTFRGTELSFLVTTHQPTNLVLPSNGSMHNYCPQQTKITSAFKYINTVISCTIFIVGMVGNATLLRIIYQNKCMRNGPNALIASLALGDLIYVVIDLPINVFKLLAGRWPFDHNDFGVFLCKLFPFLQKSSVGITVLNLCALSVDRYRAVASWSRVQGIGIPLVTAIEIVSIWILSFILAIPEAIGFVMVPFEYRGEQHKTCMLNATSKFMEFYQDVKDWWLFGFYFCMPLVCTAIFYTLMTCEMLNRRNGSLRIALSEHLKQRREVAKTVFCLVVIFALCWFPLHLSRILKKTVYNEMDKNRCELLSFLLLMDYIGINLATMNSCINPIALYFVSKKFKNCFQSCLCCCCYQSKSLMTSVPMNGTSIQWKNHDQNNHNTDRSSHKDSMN

[1] = Oral half-life and peak plasma levels; assay type: in vivo
Source text: As used herein, bioavailability refers to the rate and extent of absorption. Methods for determining bioavailability are well known to those of skill in the art. For example, bioavailability of any of the compounds described herein can be determined empirically by administration of the compound to an animal, followed by taking blood samples over time and measuring the blood concentration of the compound. In vivo half life (t1/2) is defined as the time it takes for the concentration of the compound in the blood to be reduced by one-half. Estimations of the area under the curve for intravenous administration can be used to estimate the area under the curve for oral administration, ylelding bioavailability data. See, e.g., Milo Gibal (1991) Biopharmaceutics and Pharmacology, 4th edition (Lea and Sediger).
Table 2 lists oral half-life, bioavailability, and in vivo activity of selected exemplary compounds. The in vivo activity was measured in a pulmonary hypertension model and is a measure of the activity of the compounds at selected dosages.

## Cc1cc(C)c(NC(=O)c2sccc2S(=O)(=O)Nc2onc(C)c2Cl)c(C)c1O [N-(4-chloro-3-methyl-5-isoxazolyl)-2-(3-hydroxy-2,4,6-trimethylphenylaminocarbonyl)thiophene-3-sulfonamide]
Hypertensive rat model
  decrease of blood pressure: effective in decreasing blood pressure
Human ETA receptors
  IC50: 1.71 nM
[1]; oral
  POt½ in Rat: 7 h
[1]; rat, in vivo
  Peak Plasma Levels: 5.6 µg/mL
